From patent US20170158636A1, “FUNCTIONALISED AND SUBSTITUTED CARBAZOLES AS ANTI-CANCER AGENTS” (Novogen Ltd., priority 2014, published 2017)

What was measured:
Assay type in all cases: cell-based
[1] = test system: TNF-α; test: Cytokine release from LPS-stimulated PBMCs (HTRF); conditions: PBMC, human PBMCs
Description: (§1) The ability of compounds 1004, 1007 and 1018 to inhibit the release of cytokines TNF-α, IFN-γ, IL-6, IL-21, IL-17A and IL-23 was evaluated in vitro (Tables 2 and 3). Briefly, human peripheral blood mononuclear cells (PBMCs) were isolated from human peripheral blood by Histopaque density gradient centrifugation. The freshly isolated PBMCs were seeded at 50,000 cells/well in a 96-well half area plate. PBMCs were dosed with the test compounds (at 10 μM, 1 μM and 0.1 μM) and then incubated at 37° C. and 5% CO2 for 2 hours. To stimulate release of the cytokines IFN-γ, IL-21, IL-17A and IL-23, the PBMCs were treated with 50 ng/mL of phorbol 12-myristate 13-acetate (PMA) and 1 μg/mL of ionomycin and to stimulate the release of TNF-α and IL-6, PBMCs were treated with 100 ng/mL of lipopolysaccharide (LPS) from gram-negative bacteria. The PBMCs were then incubated at 37° C. and 5% CO2 for a further 6 hours and the cell supernatant was collected and a Homogenous Time Resolved Fluorescence (HTRF) assay was carried out following the manufacturer's instructions. Cytokine release from the PBMCs was captured using a Perkin Elmer ENVISION 2104 microplate reader set at 615 nm and 665 nm respectively.

[2] = test system: IL-6; test: Cytokine release from LPS-stimulated PBMCs (HTRF); conditions: PBMC, human PBMCs
Description: as §1

[3] = test system: Tpm3.1-containing actin filaments in SK-N-SH neuroblastoma cells; test: Disruption of Tpm3.1-containing actin filaments (γ9d staining); conditions: SK-N-SH cells, 0, 5 and 7.5 μM, 48 hours post treatment
Description: FIG. 2: Imaging and quantitation of Tpm3.1-containing actin filaments in SK-N-SH neuroblastoma cells treated with compound (A) 1007, (B) 1013 and (C) 1016. Cells were stained with γ9d (sheep polycolonal, 1:100) followed by 488-conjugated secondary (1:1000) and DAPI to visualize the Tpm3.1 containing filament bundles and the nucleus, respectively. Shown in the top panel is a representative gray scale immunofluorescent image from control (vehicle alone), 5 μM and 7.5 μM treated cells. […] The coloured lines indicate the detected Tpm3.1 containing actin filaments. Also shown is the quantitation of cell number, Tpm3.1 filament number/cell and Tpm3.1 filament number/cell area (μM^2). Statistical analysis was performed using a one way ANNOVA-multiple comparison where each drug treated group was compared to the control. ****p<0.0001.
Another assay was conducted to assess the ability of compounds 1007, 1013 and 1016 to specifically disrupt actin filaments containing Tpm3.1 (FIG. 2). Briefly, SK-N-SH neuroblastoma cells were seeded at 2×10^4 cells/mL in a 10 cm tissue culture plate and left to plate down 24 hours prior to treatment. Cells were then treated with 0, 5 and 7.5 μM of the test compounds. 48 hours post treatment, cells were fixed with 4% w/v paraformaldehyde (PBS), permeabilized with Triton-X-100 and stained with γ9d (sheep polycolonal, 1:100) followed by 488-conjugated secondary (1:1000) and DAPI to visualize the Tpm3.1 containing filament bundles and the nucleus, respectively. Single plane images were obtained on the Zeiss epifluorescent Axioscope microscope using a 20× objective. Six fields of view per condition were imaged. Images were then exported and the linear features (actin filaments containing Tpm3.1) were then quantitated using the linear feature detection algorithm described above.

CCN(CC)CCCn1c2ccccc2c2cc(C(=O)N3CCN(CCc4ccc(F)cc4)CC3)ccc21 [Compound 1007, (9-(3-(diethylamino)propyl)-9H-carbazol-3-yl)(4-(4-fluorophenethyl)piperazin-1-yl)methanone]
inhibition at 0.1 µM ([1]; 0.1 μM): 43%
inhibition at 1 µM ([1]; 1 μM): 60%
inhibition at 10 µM ([1]; 10 μM): 82%
inhibition at 0.1 µM ([2]; 0.1 μM): 38%
inhibition at 1 µM ([2]; 1 μM): 59%
inhibition at 10 µM ([2]; 10 μM): 89%
disruption of Tpm3.1-containing actin filaments [3]: disrupt Tpm3.1-containing actin filaments in a dose-dependent manner
